Measurements reported in patent US20180036330A1, “NUCLEOTIDE PHOSPHORAMIDATE FORMULATION” (priority 2015, published 2018).
In brackets after ≈: the same amount, converted by molar mass. Like-named read-outs stand apart in the source and are kept apart here.

Columns and labels:
[1] = system: HCV replicon (NS3-NS5B regions of HCV type 1 b) in Huh-7 luc/neo cells; assay: HCV replicon assay (Huh-Luc, luciferase); format: cell-based; conditions: Hepatitis C virus, Huh-7, 72 h, three days incubation, luciferase activity, n>10
Description: The compositions of the invention may be examined for activity in the inhibition of HCV RNA replication in a cellular assay aimed at identifying compounds that inhibit a HCV functional cellular replicating cell line, also known as HCV replicons. A suitable cellular assay is based on a bicistronic expression construct, as described by Lohmann et al. (1999), Science vol. 285 pp. 110-113 with modifications described by Krieger et al. (2001), Journal of Virology 75: 4614-4624, in a multi-target screening strategy.
The assay utilizes the stably transfected cell line Huh-7 luc/neo (hereafter referred to as Huh-Luc). […]
The replicon cells are plated in 384 well plates in the presence of the test and control compounds which are added in various concentrations. Following an incubation of three days, HCV replication is measured by assaying luciferase activity (using standard luciferase assay substrates and reagents and a Perkin Elmer ViewLux™ ultraHTS microplate imager). […] The inhibitory activity of a compound on luciferase activity is monitored on the Huh-Luc cells, enabling a dose-response curve for each test compound. […]

[2] = system: Huh-Luc cell line; assay: Cell toxicity in the Huh-Luc cell line; format: cell-based
[3] = Basket dissolution test USP method 711 of Compound 1 in hard gelatin capsule (Example 3); format: physicochemical; conditions: for Mean % Compound 1 released: n = 2
Method: Dissolution test. 350 mg of Compound 1 was filled into a hard gelatin capsule. A basket dissolution test was performed according to USP method 711, at 100 rpm at 37° C., 900 g media, 5 ml sampling after 20, 45, 90 minutes. Samples were analysed by RP-UPLC. […] The lump was very sticky when wet but dried to a hard lump in air.

[4] = Solubility of Compound 1 in ethanol; format: physicochemical; conditions: for solubility: 99% ethanol, organic solvent or mixture, heated to 50-60° C., transparent syrup, read-out: solubility in ethanol: final concentration fully dissolved
Method: 100.43 mg of Compound 1 was weighed into a glass vial. 37 μl of 99% ethanol was added so that final concentration was 2700 mg/ml. The formulation was heated to 50-60° C. during gentle agitation until the drug substance was fully dissolved. A transparent syrup was obtained and the solution remained transparent after cooling and storage at room temperature for more than 48 hours with no visible crystals.
200.26 mg of Compound 1 was weighed into a glass vial. 67 μl of 99% ethanol was added so that final concentration was 3000 mg/ml. The formulation was heated to 50-60° C. during gentle agitation until the drug substance was fully dissolved. A transparent syrup was obtained.

[5] = solvent not given, context ethanol, cited from earlier work

| Structure (SMILES) | EC50 [1] [nM] | cell toxicity [2] [µM] | Mean % Compound 1 released ([3]; 0.1M HCl, 20 min, 350 mg in hard gelatin capsule, 37° C., 100 rpm) [%] | Mean % Compound 1 released ([3]; 0.1M HCl, 45 min, 350 mg in hard gelatin capsule) [%] | Mean % Compound 1 released ([3]; 0.1M HCl, 90 min, 350 mg in hard gelatin capsule) [%] | observation of capsule during dissolution test ([3]; 350 mg in hard gelatin capsule, 90 min) | Mean % Compound 1 released ([3]; FaSSIF, 20 min, 350 mg in hard gelatin capsule) [%] | Mean % Compound 1 released ([3]; FaSSIF, 45 min, 350 mg in hard gelatin capsule) [%] | Mean % Compound 1 released ([3]; FaSSIF, 90 min, 350 mg in hard gelatin capsule) [%] | solubility of the lump in 70% EtOH ([3]; lump formed from capsule, 70% EtOH) | time solution remained transparent with no visible crystals ([4]; 2700 mg/ml in 99% ethanol, after cooling, storage at room temperature) | appearance after cooling and storage at room temperature ([4]; 3000 mg/ml in 99% ethanol) | solubility ([4]; 100.43 mg in 37 μl 99% ethanol) [mg/mL] | solubility ([4]; 200.26 mg in 67 μl 99% ethanol) [mg/mL] | published solubility ([5]; Cayman Chemical item no 15402 and Apex BT Catalog no. A3738) [mg/mL] | published solubility ([5]; Selleckchem Catalog no S2794) [mg/mL] |
| --- | --- | --- | --- | --- | --- | --- | --- | --- | --- | --- | --- | --- | --- | --- | --- | --- |
| CC(C)OC(=O)[C@H](C)N[P@](=O)(OC[C@H]1O[C@@H](n2ccc(=O)[nH]c2=O)[C@@](F)(Cl)[C@@H]1O)Oc1ccccc1 [Compound 1, (S)-Isopropyl 2-(((S)-(((2R,3R,4S,5R)-4-chloro-5-(2,4-dioxo-3,4-dihydropyrimidin-1(2H)-yl)-4-fluoro-3-hydroxytetrahydrofuran-2-yl)methoxy)(phenoxy)phosphoryl)amino)propanoate] | 55 | > 50 | 2 | 3 | 5 | water insoluble lump that did not dissolve or change much during 90 min | 2 | 5 | 8 | surprisingly soluble | more than 48 hours | solidified to a slightly opaque semisolid with no visible crystals | 2700 (≈ 4910 mM) | 3000 (≈ 5460 mM) |  |  |
| CC(C)OC(=O)[C@H](C)N[P@](=O)(OC[C@H]1O[C@@H](n2ccc(=O)[nH]c2=O)[C@](C)(F)[C@@H]1O)Oc1ccccc1 [sofosbuvir] |  |  |  |  |  |  |  |  |  |  |  |  |  |  | 25 | 100 |
